Measured values from patent US9833497B2, “Human originated EGF domain proteins and use of the same” (CHENGDU SOURCEBIO LIMITED-LIABILITY COMPANY, priority 2013, dated 2017).

Columns and labels:
Type in all cases: cell-based
[1] = system: E. coli DH5α; test: Antibacterial activity: MIC and growth curve against E. coli DH5α in 96-well plate; settings: minimal inhibitory concentration against E. coli DH5α; 96-well plate, 5×10^5 CFU/mL, 37° C., judged after 8 h
Method in brief: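 Log-phase bacteria (OD600 ~0.5) resuspended in LB at 5×10^5 CFU/mL, exposed to recombinant protein at 50, 25, 12.5 μg/mL final in triplicate, 37 °C shaking at 175 rpm. OD600 read every 30 min; MIC is lowest concentration showing no growth.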

[2] = system: Proteus vulgaris; test: MIC against Gram-negative bacteria: Proteus vulgaris; settings: 5×10^5 CFU/mL
Method in brief: (§1)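 Broth microdilution, LB medium, final inoculum 5×10^5 CFU/mL from McFarland 0.5 cultures. Recombinant human EGF domain proteins tested in two-fold steps, n=3. MIC: lowest concentration, no growth.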

[3] = system: Citrobacter diversus; test: MIC against Gram-negative bacteria: Citrobacter diversus; settings: 5×10^5 CFU/mL
Method in brief: as §1

[4] = system: Enterobacter cloacae; test: MIC against Gram-negative bacteria: Enterobacter cloacae; settings: 5×10^5 CFU/mL
Method in brief: as §1

[5] = system: E. coli BL21; test: MIC against Gram-negative bacteria: E. coli BL21; settings: 5×10^5 CFU/mL
Method in brief: as §1

[6] = system: Klebsiella pneumonia; test: MIC against Gram-negative bacteria: Klebsiella pneumonia; settings: 5×10^5 CFU/mL
Method in brief: as §1

[7] = system: Moraxella catarrhalis; test: MIC against Gram-negative bacteria: Moraxella catarrhalis; settings: 5×10^5 CFU/mL
Method in brief: as §1

[8] = system: Proteus mirabilis; test: MIC against Gram-negative bacteria: Proteus mirabilis; settings: 5×10^5 CFU/mL
Method in brief: as §1

[9] = system: Pseudomonas aeruginosa; test: MIC against Gram-negative bacteria: Pseudomonas aeruginosa; settings: 5×10^5 CFU/mL
Method in brief: as §1

[10] = system: Aeromonas hydrophila; test: MIC against Gram-negative bacteria: Aeromonas hydrophila; settings: 5×10^5 CFU/mL
Method in brief: as §1

[11] = system: Serratia marcescens; test: MIC against Gram-negative bacteria: Serratia marcescens; settings: 5×10^5 CFU/mL
Method in brief: as §1

[12] = 10 h cultivation at 37° C., two-fold serial dilution
[13] = P. vulgaris, 10 h cultivation at 37° C.
[14] = C. diversus, 10 h cultivation at 37° C.
[15] = E. cloacae, 10 h cultivation at 37° C.
[16] = E. coli BL21, 10 h cultivation at 37° C.
[17] = K. pneumonia, 10 h cultivation at 37° C.
[18] = M. catarrhalis, 10 h cultivation at 37° C.
[19] = P. mirabilis, 10 h cultivation at 37° C.
[20] = P. aeruginosa, 10 h cultivation at 37° C.
[21] = A. hydrophila, 10 h cultivation at 37° C.
[22] = S. marcescens, 10 h cultivation at 37° C.
[23] = Proteus vulgaris, 96-well plate, 37° C., 10 h
[24] = Citrobacter diversus, 96-well plate, 37° C., 10 h
[25] = Enterobacter cloacae, 96-well plate, 37° C., 10 h
[26] = E. coli BL21, 96-well plate, 37° C., 10 h
[27] = Klebsiella pneumonia, 96-well plate, 37° C., 10 h
[28] = Moraxella catarrhalis, 96-well plate, 37° C., 10 h
[29] = Proteus mirabilis, 96-well plate, 37° C., 10 h
[30] = Pseudomonas aeruginosa, 96-well plate, 37° C., 10 h
[31] = Aeromonas hydrophila, 96-well plate, 37° C., 10 h
[32] = Serratia marcescens, 96-well plate, 37° C., 10 h
[33] = Proteus vulgaris, 10 h cultivation at 37° C.
[34] = Citrobacter diversus, 10 h cultivation at 37° C.
[35] = Enterobacter cloacae, 10 h cultivation at 37° C.
[36] = Klebsiella pneumonia, 10 h cultivation at 37° C.
[37] = Moraxella catarrhalis, 10 h cultivation at 37° C.
[38] = Proteus mirabilis, 10 h cultivation at 37° C.
[39] = Pseudomonas aeruginosa, 10 h cultivation at 37° C.
[40] = Aeromonas hydrophila, 10 h cultivation at 37° C.
[41] = Serratia marcescens, 10 h cultivation at 37° C.

Substance: PRT1078 (GTNKCRVNNGGCSSLCLATPGSRQCACAEDQVLDADGVTCL; listed as Homo sapiens)
- MIC [1]: 25 µg/mL
- MIC P. vulgaris [2, 12]: 50 µg/mL
- MIC C. diversus [3, 12]: 12.5 µg/mL
- MIC E. cloacae [4, 12]: 25 µg/mL
- MIC E. coli BL21 [5, 12]: 50 µg/mL
- MIC K. pneumonia [6, 12]: 12.5 µg/mL
- MIC M. catarrhalis [7, 12]: 50 µg/mL
- MIC P. mirabilis [8, 12]: 12.5 µg/mL
- MIC P. aeruginosa [9, 12]: 25 µg/mL
- MIC A. hydrophila [10, 12]: 50 µg/mL
- MIC S. marcescens [11, 12]: 12.5 µg/mL

Substance: PRT426 (DINECTSLSEPCRPGFSCINTVGSYTCQRNPLICARGYHASDDGTKCV; listed as Homo sapiens)
- MIC [1]: 12.5 µg/mL
- MIC [2, 13]: 25 µg/mL
- MIC [3, 14]: 12.5 µg/mL
- MIC [4, 15]: 50 µg/mL
- MIC [5, 16]: 50 µg/mL
- MIC [6, 17]: 50 µg/mL
- MIC [7, 18]: 12.5 µg/mL
- MIC [8, 19]: 12.5 µg/mL
- MIC [9, 20]: 50 µg/mL
- MIC [10, 21]: 12.5 µg/mL
- MIC [11, 22]: 50 µg/mL

Substance: PRT704 (LLSNCQQLNCQYKCTMVRNSTRCYCEDGFEITEDGRSCK; listed as Homo sapiens)
- MIC [1]: 50 µg/mL
- MIC P. vulgaris ([2]; 96-well plate, 37° C., 10 h): 25 µg/mL
- MIC C. diversus ([3]; 96-well plate, 37° C., 10 h): 25 µg/mL
- MIC E. cloacae ([4]; 96-well plate, 37° C., 10 h): 50 µg/mL
- MIC E. coli BL21 ([5]; 96-well plate, 37° C., 10 h): 25 µg/mL
- MIC K. pneumonia ([6]; 96-well plate, 37° C., 10 h): 25 µg/mL
- MIC M. catarrhalis ([7]; 96-well plate, 37° C., 10 h): 12.5 µg/mL
- MIC P. mirabilis ([8]; 96-well plate, 37° C., 10 h): 50 µg/mL
- MIC P. aeruginosa ([9]; 96-well plate, 37° C., 10 h): 50 µg/mL
- MIC A. hydrophila ([10]; 96-well plate, 37° C., 10 h): 50 µg/mL
- MIC S. marcescens ([11]; 96-well plate, 37° C., 10 h): 12.5 µg/mL

Substance: PRT1249 (NQCACNSSPCEQQSGRCQCRERTFGARCD; listed as Homo sapiens)
- MIC [1]: 12.5 µg/mL
- MIC against P. vulgaris [2, 23]: 50 µg/mL
- MIC against C. diversus [3, 24]: 50 µg/mL
- MIC against E. cloacae [4, 25]: 50 µg/mL
- MIC against E. coli BL21 [5, 26]: 12.5 µg/mL
- MIC against K. pneumonia [6, 27]: 12.5 µg/mL
- MIC against M. catarrhalis [7, 28]: 12.5 µg/mL
- MIC against P. mirabilis [8, 29]: 25 µg/mL
- MIC against P. aeruginosa [9, 30]: 50 µg/mL
- MIC against A. hydrophila [10, 31]: 12.5 µg/mL
- MIC against S. marcescens [11, 32]: 25 µg/mL

Substance: PRT1443 (NHMPCPENLNGYCIHGKCEFIYSTQKASCRCESGYTGQHCE; listed as Homo sapiens)
- MIC [1]: 25 µg/mL
- MIC against P. vulgaris [2, 33]: 25 µg/mL
- MIC against C. diversus [3, 34]: 25 µg/mL
- MIC against E. cloacae [4, 35]: 25 µg/mL
- MIC against E. coli BL21 [5, 16]: 50 µg/mL
- MIC against K. pneumonia [6, 36]: 12.5 µg/mL
- MIC against M. catarrhalis [7, 37]: 25 µg/mL
- MIC against P. mirabilis [8, 38]: 12.5 µg/mL
- MIC against P. aeruginosa [9, 39]: 25 µg/mL
- MIC against A. hydrophila [10, 40]: 50 µg/mL
- MIC against S. marcescens [11, 41]: 50 µg/mL

Substance: PRT694 (DVDECRRVPPPCAPGRCENSPGSFRCVCGPGFRAGPRAAECL; listed as Homo sapiens)
- MIC [1]: 50 µg/mL
- MIC P. vulgaris ([2]; 96-well plate, 37° C., 10 h): 12.5 µg/mL
- MIC C. diversus ([3]; 96-well plate, 37° C., 10 h): 12.5 µg/mL
- MIC E. cloacae ([4]; 96-well plate, 37° C., 10 h): 50 µg/mL
- MIC E. coli BL21 ([5]; 96-well plate, 37° C., 10 h): 25 µg/mL
- MIC K. pneumonia ([6]; 96-well plate, 37° C., 10 h): 25 µg/mL
- MIC M. catarrhalis ([7]; 96-well plate, 37° C., 10 h): 25 µg/mL
- MIC P. mirabilis ([8]; 96-well plate, 37° C., 10 h): 50 µg/mL
- MIC P. aeruginosa ([9]; 96-well plate, 37° C., 10 h): 50 µg/mL
- MIC A. hydrophila ([10]; 96-well plate, 37° C., 10 h): 25 µg/mL
- MIC S. marcescens ([11]; 96-well plate, 37° C., 10 h): 50 µg/mL

Substance: PRT107 (DRCLPSYCEHGGECSQSWDTFSCDCLGTGYTGETC; listed as Homo sapiens)
- MIC [1]: 12.5 µg/mL
- MIC (μg/mL) P. vulgaris [2, 23]: 50 µg/mL
- MIC (μg/mL) C. diversus [3, 24]: 25 µg/mL
- MIC (μg/mL) E. cloacae [4, 25]: 12.5 µg/mL
- MIC (μg/mL) E. coli BL21 [5, 26]: 12.5 µg/mL
- MIC (μg/mL) K. pneumonia [6, 27]: 12.5 µg/mL
- MIC (μg/mL) M. catarrhalis [7, 28]: 12.5 µg/mL
- MIC (μg/mL) P. mirabilis [8, 29]: 25 µg/mL
- MIC (μg/mL) P. aeruginosa [9, 30]: 12.5 µg/mL
- MIC (μg/mL) A. hydrophila [10, 31]: 50 µg/mL
- MIC (μg/mL) S. marcescens [11, 32]: 12.5 µg/mL

Substance: PRT92 (VSDLCATGDHDCEQVCISSPGSYTCACHEGFTLNSDGKTCN; listed as Homo sapiens)
- MIC [1]: 50 µg/mL
- MIC (μg/mL) P. vulgaris [2, 23]: 25 µg/mL
- MIC (μg/mL) C. diversus [3, 24]: 12.5 µg/mL
- MIC (μg/mL) E. cloacae [4, 25]: 50 µg/mL
- MIC (μg/mL) E. coli BL21 [5, 26]: 12.5 µg/mL
- MIC (μg/mL) K. pneumonia [6, 27]: 12.5 µg/mL
- MIC (μg/mL) M. catarrhalis [7, 28]: 25 µg/mL
- MIC (μg/mL) P. mirabilis [8, 29]: 50 µg/mL
- MIC (μg/mL) P. aeruginosa [9, 30]: 50 µg/mL
- MIC (μg/mL) A. hydrophila [10, 31]: 25 µg/mL
- MIC (μg/mL) S. marcescens [11, 32]: 12.5 µg/mL

Substance: PRT787 (RQICDCLNNSTCDHITGTCYCSPGWKGARCD; listed as Homo sapiens)
- MIC [1]: 12.5 µg/mL
- MIC (μg/mL) P. vulgaris [2, 13]: 25 µg/mL
- MIC (μg/mL) C. diversus [3, 14]: 25 µg/mL
- MIC (μg/mL) E. cloacae [4, 15]: 12.5 µg/mL
- MIC (μg/mL) E. coli BL21 [5, 16]: 12.5 µg/mL
- MIC (μg/mL) K. pneumonia [6, 17]: 12.5 µg/mL
- MIC (μg/mL) M. catarrhalis [7, 18]: 50 µg/mL
- MIC (μg/mL) P. mirabilis [8, 19]: 25 µg/mL
- MIC (μg/mL) P. aeruginosa [9, 20]: 12.5 µg/mL
- MIC (μg/mL) A. hydrophila [10, 21]: 12.5 µg/mL
- MIC (μg/mL) S. marcescens [11, 22]: 12.5 µg/mL

Substance: PRT1371 (GTRACPGDCRGRGRCVDGRCVCNPGFTGEDC; listed as Homo sapiens)
- MIC [1]: 50 µg/mL
- MIC against P. vulgaris [2, 33]: 12.5 µg/mL
- MIC against C. diversus [3, 34]: 100 µg/mL
- MIC against E. cloacae [4, 35]: 12.5 µg/mL
- MIC against E. coli BL21 [5, 16]: 12.5 µg/mL
- MIC against K. pneumonia [6, 36]: 12.5 µg/mL
- MIC against M. catarrhalis [7, 37]: 12.5 µg/mL
- MIC against P. mirabilis [8, 38]: 12.5 µg/mL
- MIC against P. aeruginosa [9, 39]: 12.5 µg/mL
- MIC against A. hydrophila [10, 40]: 12.5 µg/mL
- MIC against S. marcescens [11, 41]: 12.5 µg/mL
